The structures appear in SMILES notation.

The record followed here is US20250114338A1, “TETRAHYDRO-PYRIDO[3,4-b]INDOLE ESTROGEN RECEPTOR MODULATORS AND USES THEREOF” (Genentech, Inc., priority 2014, published 2025).

In the assay the test system is ER-alpha MCF7. Nature of the assay: ER-alpha MCF7 HCS EC50; stated as measured by in vitro cell proliferation assays of Examples 902 and 903. It counts as cell-based. Particulars: Homo sapiens, MCF7, MCF7 cells; Table 2. An excerpt: The CellTiter-Glo® Luminescent Cell Viability Assay is a homogeneous method to determine the number of viable cells in culture based on quantitation of the ATP present, which signals the presence of metabolically active cells. The CellTiter-Glo® Assay is designed for use with multiwell plate formats, making it ideal for automated high-throughput screening (HTS), cell proliferation and cytotoxicity assays. The homogeneous assay procedure involves adding a single reagent (CellTiter-Glo® Reagent) directly to cells cultured in serum-supplemented medium. Cell washing, removal of medium or multiple pipetting steps are not required. The Cell Titer-Glo® Luminescent Cell Viability Assay, including reagents and protocol are commercially available (Promega Corp., Madison, WI, Technical Bulletin TB288).
The assay assesses the ability of compounds to enter cells and inhibit cell proliferation. The assay principle is based on the determination of the number of viable cells present by quantitating the ATP present in a homogenous assay where addition of the Cell Titer-Glo® reagent results in cell lysis and generation of a luminescent signal through the luciferase reaction. The luminescent signal is proportional to the amount of ATP present.
Cell Culture Medium: RPMI or DMEM high glucose, 10% Fetal Bovine Serum, 2 mM L-Glutamine, P/S. Incubate O/N (overnight) at 37° C., 5% CO2.
Day 2—Add Drug to Cells, Compound Dilution, DMSO Plates (serial 1:2 for 9 points). Add 20 μl of compound at 10 mM in the 2nd column of 96 well plate. […] Add 147 μl of Media into all wells. Transfer 3 μl of DMSO+ compound from each well in the DMSO Plate to each corresponding well on Media Plate using Rapidplate® (Caliper, a Perkin-Elmer Co.). For 2 drug combination studies, transfer one drug 1.5 μl of DMSO+ compound from each well in the DMSO Plate to each corresponding well on Media Plate using Rapidplate. Then, transfer another drug 1.5 μl to the medium plate.
Drug Addition to Cells, Cell Plate (1:10 dilution): Add 6 μl of media+ compound directly to cells (54 μl of media on the cells already). Incubate 3 days at 37° C., 5% CO2 in an incubator that will not be opened often.
Day 5—Develop Plates, Thaw Cell Titer Glo Buffer at room temperature: Remove Cell Plates from 37° C. and equilibrate to room temperature for about 30 minutes. Add Cell Titer-Glo® Buffer to Cell Titer-Glo® Substrate (bottle to bottle). Add 30 μl Cell Titer-Glo® Reagent (Promega cat. #G7572) to each well of cells. Place on plate shaker for about 30 minutes. Read luminescence on Analyst HT Plate Reader (half second per well).
Cell viability assays and combination assays: Cells were seeded at 1000-2000 cells/well in 384-well plates for 16 h. On day two, nine serial 1:2 compound dilutions were made in DMSO in a 96 well plate. The compounds were further diluted into growth media using a Rapidplate® robot (Zymark Corp., Hopkinton, MA). The diluted compounds were then added to quadruplicate wells in 384-well cell plates and incubated at 37° C. and 5% CO2. After 4 days, relative numbers of viable cells were measured by luminescence using Cell Titer-Glo® (Promega) according to the manufacturer's instructions and read on a Wallac Multilabel Reader® (PerkinElmer, Foster City). EC50 values were calculated using Prism® 4.0 software (GraphPad, San Diego).
5 ul of each individual compound concentration and each control compound was transferred to the cell plate. Fulvestrant was added to control wells at a final concentration of 100 nM). DMSO was added to negative control wells (0.2% v/v).
Regarding `C[C@@H]1Cc2c([nH]c3ccccc23)[C@@H](c2ccc(OCCN3CC(CF)C3)cc2F)N1CC(C)(C)F` [Example 133, (1R,3R)-2-(2-fluoro-2-methylpropyl)-1-(2-fluoro-4-(2-(3-(fluoromethyl)azetidin-1-yl)ethoxy)phenyl)-3-methyl-2,3,4,9-tetrahydro-1H-pyrido[3,4-b]indole], the EC50 was found to be 0.0562 nM. Consider `C[C@H](CN1[C@H](c2c(F)cc(OCCN3CC(CF)C3)cc2F)c2[nH]c3ccccc3c2C[C@H]1C)C(N)=O` [Example 347, (R)-3-((1R,3R)-1-(2,6-difluoro-4-(2-(3-(fluoromethyl)azetidin-1-yl)ethoxy)phenyl)-3-methyl-1,3,4,9-tetrahydro-2H-pyrido[3,4-b]indol-2-yl)-2-methylpropanamide], for which the EC50 worked out at 14 nM. In the case of `C[C@@H]1Cc2c([nH]c3ccccc23)[C@@H](c2cc(F)c(OC3CN(CCCF)C3)c(F)c2)N1CC(C)(C)F` [Example 336, (1R,3R)-1-[3,5-difluoro-4-[1-(3-fluoropropyl)azetidin-3-yl]oxy-phenyl]-2-(2-fluoro-2-methyl-propyl)-3-methyl-1,3,4,9-tetrahydropyrido[3,4-b]indole] it was 0.263 nM; in that of `C[C@@H]1Cc2c([nH]c3ccccc23)[C@@H](c2c(F)cc(OCCN3CC(CF)C3)cc2F)N1CC(F)F` [Example 305, (1R,3R)-2-(2,2-difluoroethyl)-1-[2,6-difluoro-4-[2-[3-(fluoromethyl)azetidin-1-yl]ethoxy]phenyl]-3-methyl-1,3,4,9-tetrahydropyrido[3,4-b]indole], 0.216 nM; in that of `C[C@@H]1Cc2c([nH]c3ccccc23)[C@@H](c2ccc(OC3CN(CCCF)C3)cc2F)N1CC(C)(C)F` [Example 177, (1R,3R)-1-[2-fluoro-4-[1-(3-fluoropropyl)azetidin-3-yl]oxy-phenyl]-2-(2-fluoro-2-methyl-propyl)-3-methyl-1,3,4,9-tetrahydropyrido[3,4-b]indole], 0.164 nM.

On to `C[C@@H]1Cc2c([nH]c3ccccc23)[C@@H](c2c(F)cc(OCCN3CC(CF)C3)cc2F)N1C(=O)C1CCC1` [Example 148, cyclobutyl-[(1R,3R)-1-[2,6-difluoro-4-[2-[3-(fluoromethyl)azetidin-1-yl]ethoxy]phenyl]-3-methyl-1,3,4,9-tetrahydropyrido[3,4-b]indol-2-yl]methanone], for which the concentration for a half-maximal effect (EC50) came to 1.47 nM. In the case of `C[C@@H]1Cc2c([nH]c3ccc(F)cc23)[C@@H](c2c(F)cc(OC3CN(CCCF)C3)cc2F)N1CC(F)(F)CO` [Example 363, 3-((1R,3R)-1-(2,6-difluoro-4-((1-(3-fluoropropyl)azetidin-3-yl)oxy)phenyl)-6-fluoro-3-methyl-1,3,4,9-tetrahydro-2H-pyrido[3,4-b]indol-2-yl)-2,2-difluoropropan-1-ol] it was 0.166 nM; in that of `C[C@H]1Cc2c([nH]c3cc(F)ccc23)[C@H](c2c(F)cc(NC3CN(CCCF)C3)cc2F)N1CC(F)(F)CO` [Example 426, 3-((1S,3S)-1-(2,6-difluoro-4-((1-(3-fluoropropyl)azetidin-3-yl)amino)phenyl)-7-fluoro-3-methyl-3,4-dihydro-1H-pyrido[3,4-b]indol-2(9H)-yl)-2,2-difluoropropan-1-ol], 6.38 nM; in that of `C[C@@H]1Cc2c([nH]c3ccccc23)[C@@H](c2c(F)cc(OC3CN(CCCF)C3)cc2F)N1C(=O)C1(F)CC1` [Example 238, [(1R,3R)-1-[2,6-difluoro-4-[1-(3-fluoropropyl)azetidin-3-yl]oxy-phenyl]-3-methyl-1,3,4,9-tetrahydropyrido[3,4-b]indol-2-yl]-(1-fluorocyclopropyl)methanone], 0.244 nM. In the case of `C[C@@H]1Cc2c([nH]c3ccccc23)[C@@H](c2ccc(NCCN3CC(CF)C3)cc2)N1CC(C)(C)F` [Example 323, N-[2-[3-(fluoromethyl)azetidin-1-yl]ethyl]-4-[(1R,3R)-2-(2-fluoro-2-methyl-propyl)-3-methyl-1,3,4,9-tetrahydropyrido[3,4-b]indol-1-yl]aniline] it was 0.215 nM; in that of `C[C@@H]1Cc2c([nH]c3ccccc23)[C@@H](c2ccc(OC3CN(CCCF)C3)cc2)N1S(C)(=O)=O` [Example 330, (1R,3R)-1-[4-[1-(3-fluoropropyl)azetidin-3-yl]oxyphenyl]-3-methyl-2-methylsulfonyl-1,3,4,9-tetrahydropyrido[3,4-b]indole], 2 nM; in that of `C[C@@H]1Cc2c([nH]c3ccccc23)[C@@H](c2c(F)cc(OCCN3CC(CF)C3)cc2F)N1C(=O)C1CC(F)C1` (stereo in doubt) [Example 203, [1-[2,6-difluoro-4-[2-[3-(fluoromethyl)azetidin-1-yl]ethoxy]phenyl]-3-methyl-1,3,4,9-tetrahydropyrido[3,4-b]indol-2-yl]-(3-fluorocyclobutyl)methanone], 4 nM. In the case of `CC(C)(F)CN1[C@H](c2c(F)cc(OCCN3CC(CF)C3)cc2F)c2[nH]c3ccccc3c2CC1(C)C` [Example 257, (1R)-1-[2,6-difluoro-4-[2-[3-(fluoromethyl)azetidin-1-yl]ethoxy]phenyl]-2-(2-fluoro-2-methyl-propyl)-3,3-dimethyl-4,9-dihydro-1H-pyrido[3,4-b]indole] it was 1.09 nM. For the molecule `C[C@@H]1Cc2c([nH]c3ccccc23)[C@@H](c2c(F)cc(OCCN3CC(CF)C3)cc2F)N1C(=O)C1CCO1` (stereo partly drawn) [Example 219, ((1R,3R)-1-(2,6-difluoro-4-(2-(3-(fluoromethyl)azetidin-1-yl)ethoxy)phenyl)-3-methyl-1,3,4,9-tetrahydro-2H-pyrido[3,4-b]indol-2-yl)(oxetan-2-yl)methanone], the EC50 worked out at 35 nM. In the case of `C[C@@H]1Cc2c([nH]c3ccccc23)[C@@H](c2c(F)cc(OC[C@H](C)N3CCCC3)cc2F)N1CC(C)(C)F` [Example 142, (1R,3R)-1-[2,6-difluoro-4-[(2S)-2-pyrrolidin-1-ylpropoxy]phenyl]-2-(2-fluoro-2-methyl-propyl)-3-methyl-1,3,4,9-tetrahydropyrido[3,4-b]indole] it was 0.09 nM; in that of `C[C@@H]1Cc2c([nH]c3ccccc23)[C@@H](c2c(F)cc(NC3CN(CCCF)C3)cc2F)N1CC(F)(F)CO` [Example 340, 3-[(1R,3R)-1-[2,6-difluoro-4-[[1-(3-fluoropropyl)azetidin-3-yl]amino]phenyl]-3-methyl-1,3,4,9-tetrahydropyrido[3,4-b]indol-2-yl]-2,2-difluoro-propan-1-ol], 0.203 nM; in that of `CCCN1CC(Oc2cc(F)c([C@@H]3c4[nH]c5ccccc5c4C[C@@H](C)N3CC(C)C)c(F)c2)C1` [Example 200, (1R,3R)-1-[2,6-difluoro-4-(1-propylazetidin-3-yl)oxy-phenyl]-2-isobutyl-3-methyl-1,3,4,9-tetrahydropyrido[3,4-b]indole], 0.408 nM. In the case of `C[C@@H]1Cc2c([nH]c3ccccc23)[C@@H](c2c(F)cc(NC3CN(CCCF)C3)cc2F)N1CC(C)(C)F` [Example 145, N-(3,5-difluoro-4-((1R,3R)-2-(2-fluoro-2-methylpropyl)-3-methyl-2,3,4,9-tetrahydro-1H-pyrido[3,4-b]indol-1-yl)phenyl)-1-(3-fluoropropyl)azetidin-3-amine] it was 0.096 nM; in that of `CC(C)[S@+]([O-])N1[C@H](c2ccc(OCCN3CC(CF)C3)cc2)c2[nH]c3ccccc3c2C[C@H]1C` [Example 332, (1R,3R)-1-(4-(2-(3-(fluoromethyl)azetidin-1-yl)ethoxy)phenyl)-2-((S)-isopropylsulfinyl)-3-methyl-2,3,4,9-tetrahydro-1H-pyrido[3,4-b]indole], 8 nM. For the molecule `C[C@@H]1Cc2c([nH]c3cc(F)ccc23)[C@@H](c2c(F)cc(NC3CN(CCCF)C3)cc2F)N1CC(F)(F)CO` [Example 425, 3-((1R,3R)-1-(2,6-difluoro-4-((1-(3-fluoropropyl)azetidin-3-yl)amino)phenyl)-7-fluoro-3-methyl-3,4-dihydro-1H-pyrido[3,4-b]indol-2(9H)-yl)-2,2-difluoropropan-1-ol], the concentration giving a half-maximal response (EC50) was determined as 0.021 nM.

In general, EC50 refers to the concentration at which the effect is half-maximal.
